According to ChEMBL document CHEMBL4480430, “Advances in inhibition of protein-protein interactions targeting hypoxia-inducible factor-1 for cancer therapy” (Bioorg Med Chem, 2019):
Each block holds one molecule with its values, some of them ahead of it. Numbered stars: 1 amine (or outer) side, 2 acyl side, 3 side chain; on linkers, the order of the positions; unused ones are H or OH. Square brackets hold non-standard residues; d marks the D form. Peptide text beside a SMILES is read from it. 4Abz(3-OiBu) = CC(C)COc1cc(C(=O)[*:2])ccc1N[*:1]; X3 = CC(C)Oc1cc(C(=O)[*:2])ccc1N[*:1]

How the values were obtained:
[1] = target: T1, Histone acetyltransferase p300/Hypoxia-inducible factor 1-alpha (Homo sapiens, UniProt Q09472+Q16665); test: Inhibition of fluorescein-labeled HIF-1alpha (786 to 826 residues) (unknown origin)/GST-fused p300 CH1 domain (323 to 423 residues) (unknown origin) protein-protein interaction after overnight incubation by time-resolved fluorescence assay; type: protein-complex assay
Target sequence in this assay (Q09472 whole entry, the tested form may be a part): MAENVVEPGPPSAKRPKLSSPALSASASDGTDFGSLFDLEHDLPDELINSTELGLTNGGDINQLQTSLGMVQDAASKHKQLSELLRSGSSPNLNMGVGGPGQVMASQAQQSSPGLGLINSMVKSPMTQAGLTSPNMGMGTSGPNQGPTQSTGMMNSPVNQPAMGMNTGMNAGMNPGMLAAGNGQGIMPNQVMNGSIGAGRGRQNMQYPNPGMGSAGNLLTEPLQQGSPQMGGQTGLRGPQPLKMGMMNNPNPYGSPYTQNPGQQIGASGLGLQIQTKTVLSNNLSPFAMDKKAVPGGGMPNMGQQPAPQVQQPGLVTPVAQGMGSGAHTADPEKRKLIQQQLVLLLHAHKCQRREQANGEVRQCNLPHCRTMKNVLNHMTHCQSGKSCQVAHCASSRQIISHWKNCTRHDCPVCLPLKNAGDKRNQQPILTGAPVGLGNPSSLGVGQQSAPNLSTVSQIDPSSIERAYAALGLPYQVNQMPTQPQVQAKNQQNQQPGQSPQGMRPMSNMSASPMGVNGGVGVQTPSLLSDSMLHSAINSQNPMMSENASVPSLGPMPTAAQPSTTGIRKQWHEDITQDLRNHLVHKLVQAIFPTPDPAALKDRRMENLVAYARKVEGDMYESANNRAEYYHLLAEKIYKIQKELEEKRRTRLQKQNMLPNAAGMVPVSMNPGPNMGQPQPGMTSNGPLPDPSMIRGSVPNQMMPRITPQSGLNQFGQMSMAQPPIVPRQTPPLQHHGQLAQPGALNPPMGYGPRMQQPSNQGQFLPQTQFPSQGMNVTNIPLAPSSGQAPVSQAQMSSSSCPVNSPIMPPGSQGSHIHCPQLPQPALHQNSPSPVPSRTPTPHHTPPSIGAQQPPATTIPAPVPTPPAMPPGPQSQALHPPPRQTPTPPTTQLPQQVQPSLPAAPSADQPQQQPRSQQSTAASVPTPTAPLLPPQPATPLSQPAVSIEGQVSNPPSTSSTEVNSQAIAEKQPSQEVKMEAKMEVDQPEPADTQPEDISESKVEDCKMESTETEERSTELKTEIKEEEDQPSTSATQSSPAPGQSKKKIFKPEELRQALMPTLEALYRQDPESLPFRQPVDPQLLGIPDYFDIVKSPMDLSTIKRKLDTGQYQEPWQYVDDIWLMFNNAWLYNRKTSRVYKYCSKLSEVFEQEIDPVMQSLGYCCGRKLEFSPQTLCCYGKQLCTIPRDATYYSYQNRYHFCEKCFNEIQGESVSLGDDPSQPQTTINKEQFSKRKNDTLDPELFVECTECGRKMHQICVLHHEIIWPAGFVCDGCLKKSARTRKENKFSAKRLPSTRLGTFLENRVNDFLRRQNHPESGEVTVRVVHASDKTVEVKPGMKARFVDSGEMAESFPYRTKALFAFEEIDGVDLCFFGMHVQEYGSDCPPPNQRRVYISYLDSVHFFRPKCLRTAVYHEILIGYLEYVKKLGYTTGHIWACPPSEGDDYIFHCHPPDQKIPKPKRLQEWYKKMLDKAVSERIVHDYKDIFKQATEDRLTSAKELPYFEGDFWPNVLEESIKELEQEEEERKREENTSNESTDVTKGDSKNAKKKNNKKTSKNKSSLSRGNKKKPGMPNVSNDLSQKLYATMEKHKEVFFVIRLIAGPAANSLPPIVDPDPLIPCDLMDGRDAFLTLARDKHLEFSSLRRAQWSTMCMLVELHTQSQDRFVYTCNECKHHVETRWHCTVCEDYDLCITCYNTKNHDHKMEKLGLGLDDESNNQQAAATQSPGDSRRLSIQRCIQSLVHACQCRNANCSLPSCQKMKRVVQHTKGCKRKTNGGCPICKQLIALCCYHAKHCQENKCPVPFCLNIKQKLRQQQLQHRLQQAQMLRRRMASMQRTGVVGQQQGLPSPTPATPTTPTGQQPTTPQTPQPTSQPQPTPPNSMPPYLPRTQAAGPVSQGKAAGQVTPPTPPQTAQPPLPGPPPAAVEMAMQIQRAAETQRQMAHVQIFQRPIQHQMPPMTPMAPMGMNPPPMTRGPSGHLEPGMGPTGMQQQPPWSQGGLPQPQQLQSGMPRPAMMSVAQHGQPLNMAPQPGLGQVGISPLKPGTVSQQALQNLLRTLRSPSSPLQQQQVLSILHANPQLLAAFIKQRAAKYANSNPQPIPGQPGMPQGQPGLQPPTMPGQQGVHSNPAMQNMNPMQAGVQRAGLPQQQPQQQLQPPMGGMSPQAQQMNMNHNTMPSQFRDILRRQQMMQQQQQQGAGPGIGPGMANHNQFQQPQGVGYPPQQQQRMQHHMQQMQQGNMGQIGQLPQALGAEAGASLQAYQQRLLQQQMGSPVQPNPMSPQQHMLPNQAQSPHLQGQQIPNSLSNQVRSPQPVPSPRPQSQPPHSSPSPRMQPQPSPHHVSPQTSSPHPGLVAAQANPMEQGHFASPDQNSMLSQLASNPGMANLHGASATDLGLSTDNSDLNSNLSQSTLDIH
Target sequence in this assay (Q16665 whole entry, the tested form may be a part): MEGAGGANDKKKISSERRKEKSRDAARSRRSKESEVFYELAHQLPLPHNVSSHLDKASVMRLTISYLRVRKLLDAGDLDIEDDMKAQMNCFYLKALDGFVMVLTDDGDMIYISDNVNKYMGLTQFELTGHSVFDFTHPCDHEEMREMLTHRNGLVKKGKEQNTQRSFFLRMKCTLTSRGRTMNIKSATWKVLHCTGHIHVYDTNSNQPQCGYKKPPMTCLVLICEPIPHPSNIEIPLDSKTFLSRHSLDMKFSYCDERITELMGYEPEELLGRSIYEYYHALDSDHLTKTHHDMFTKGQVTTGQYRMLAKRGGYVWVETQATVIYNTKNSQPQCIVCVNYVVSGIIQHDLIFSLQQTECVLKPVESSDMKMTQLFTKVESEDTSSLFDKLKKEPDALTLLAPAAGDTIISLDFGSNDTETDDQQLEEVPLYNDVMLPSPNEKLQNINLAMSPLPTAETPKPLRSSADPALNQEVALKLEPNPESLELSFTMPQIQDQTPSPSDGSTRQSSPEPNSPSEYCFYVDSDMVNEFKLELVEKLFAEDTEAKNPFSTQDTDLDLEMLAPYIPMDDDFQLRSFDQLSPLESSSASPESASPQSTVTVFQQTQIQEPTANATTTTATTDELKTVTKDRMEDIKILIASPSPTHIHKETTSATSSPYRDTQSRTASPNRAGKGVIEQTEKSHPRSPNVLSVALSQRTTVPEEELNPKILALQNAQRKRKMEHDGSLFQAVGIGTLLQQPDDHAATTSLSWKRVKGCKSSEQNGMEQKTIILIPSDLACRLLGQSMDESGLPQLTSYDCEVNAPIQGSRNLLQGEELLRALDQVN

[2] = target: T2, Hypoxia-inducible factor 1-alpha (Homo sapiens, UniProt Q16665); test: Binding affinity to HIF-1alpha (unknown origin) PAS B domain assessed as incorporation at His246 residues by mass spectrometry
[3] = target: T2, Hypoxia-inducible factor 1-alpha; test: Binding affinity to HIF-1alpha (unknown origin) PAS B domain assessed as incorporation at Cys334 residues by mass spectrometry
[4] = target: T2, Hypoxia-inducible factor 1-alpha; test: Binding affinity to HIF-1alpha (unknown origin) PAS B domain assessed as incorporation at Cys255 residues by mass spectrometry; parameters: concentration or dose not given beside the values
[5] = target: T2, Hypoxia-inducible factor 1-alpha; test: Binding affinity to C-terminal Avi/FLAG-tagged HIF-1alpha (unknown origin) assessed as incorporation at His266 residues by mass spectrometry
[6] = target: T2, Hypoxia-inducible factor 1-alpha; test: Binding affinity to HIF-1alpha (unknown origin) PAS B domain assessed as incorporation at Lys297 residues by mass spectrometry
[7] = target: T1, Histone acetyltransferase p300/Hypoxia-inducible factor 1-alpha; test: Inhibition of HIF-1alpha (unknown origin)/p300 (unknown origin) protein-protein interaction; type: protein-complex assay
Target sequence in this assay (Q09472 whole entry, the tested form may be a part): as the sequence (Q09472 whole entry, the tested form may be a part) above
Target sequence in this assay (Q16665 whole entry, the tested form may be a part): as the sequence (Q16665 whole entry, the tested form may be a part) above

[8] = target: T1, Histone acetyltransferase p300/Hypoxia-inducible factor 1-alpha; test: Inhibition of fluorescein-labeled HIF-1alpha (786 to 826 residues) (unknown origin)/GST-fused p300 CH1 domain (323 to 423 residues) (unknown origin) protein-protein interaction at 500 uM after overnight incubation by time-resolved fluorescence assay relative to control; type: protein-complex assay
[9] = target: T3, Histone acetyltransferase p300 (Homo sapiens, UniProt Q09472); test: Binding affinity to p300 CH1 domain (unknown origin) by tryptophan fluorescence assay
[10] = target: T3, Histone acetyltransferase p300; test: Binding affinity to p300 (unknown origin) by fluorescence anisotrophy
[11] = target: T3, Histone acetyltransferase p300; test: Binding affinity to human p300 CH1 domain (330 to 420 residues) expressed in Escherichia coli BL21(DE3) by fluorescence anisotropy competition assay
MDA-MB-231 = test: Antitumor activity against human MDA-MB-231 cells xenografted in mouse assessed as reduction in tumor volume at 15 mg/kg administered on alternative days for 28 days relative to control; type: functional; parameters: scale not given: the % may be the effect or the level left
[12] = target: T2, Hypoxia-inducible factor 1-alpha; test: Binding affinity to Cys255 residue of C-terminal Avi/FLAG-tagged HIF-1alpha (unknown origin) after 1 hr by AlphaScreen assay
Target sequence in this assay (Q16665 whole entry): as the sequence (Q16665 whole entry, the tested form may be a part) above

[13] = target: T3, Histone acetyltransferase p300; test: Binding affinity to human GST-fused p300 CH1 domain (323 to 423 residues) under hypoxic condition by SPR assay
[14] = target: T1, Histone acetyltransferase p300/Hypoxia-inducible factor 1-alpha; test: Inhibition of human fluorescein-labeled HIF-1alpha (786 to 826 residues)/ human GST-fused p300 CH1 domain (323 to 423 residues) protein-protein interaction after 1 hr by fluorescence polarization assay; type: protein-complex assay
Target sequence in this assay (Q09472 whole entry, the tested form may be a part): as the sequence (Q09472 whole entry, the tested form may be a part) above
Target sequence in this assay (Q16665 whole entry, the tested form may be a part): as the sequence (Q16665 whole entry, the tested form may be a part) above

[15] = target: T1, Histone acetyltransferase p300/Hypoxia-inducible factor 1-alpha; test: Inhibition of HIF-1alpha (unknown origin)/p300 (unknown origin) protein-protein interaction by fluorescence anisotropy; type: protein-complex assay
Target sequence in this assay (Q09472 whole entry, the tested form may be a part): as the sequence (Q09472 whole entry, the tested form may be a part) above
Target sequence in this assay (Q16665 whole entry, the tested form may be a part): as the sequence (Q16665 whole entry, the tested form may be a part) above

[16] = target: T2, Hypoxia-inducible factor 1-alpha; test: Inhibition of HIF-1 dimerization in HEK293 cells after 24 hrs by renilla luciferase reporter gene assay; type: cell-based
Target sequence in this assay (Q16665 whole entry): as the sequence (Q16665 whole entry, the tested form may be a part) above

[17] = target: T2, Hypoxia-inducible factor 1-alpha; test: Binding affinity to His-tagged HIF-1alpha (1 to 350 residues) (unknown origin) PAS B domain expressed in Escherichia coli BL21(DE3) by ITC
Target sequence in this assay (Q16665 whole entry): as the sequence (Q16665 whole entry, the tested form may be a part) above

[18] = target: T1, Histone acetyltransferase p300/Hypoxia-inducible factor 1-alpha; test: Inhibition of HIF-1alpha/p300 protein-protein interaction in human cells after 2 hrs by immunoprecipitation assay; type: cell-based
Target sequence in this assay (Q09472 whole entry, the tested form may be a part): as the sequence (Q09472 whole entry, the tested form may be a part) above
Target sequence in this assay (Q16665 whole entry, the tested form may be a part): as the sequence (Q16665 whole entry, the tested form may be a part) above

T3 sequence (Q09472 whole entry, the tested form may be a part): as the sequence (Q09472 whole entry, the tested form may be a part) above

IC50 [1]: 276000 nM
Molecule: COc1ccc([C@@]2(c3nc(N)[nH]c3-c3ccc(O)cc3)N=C3N=CC=C4c5ccccc5N=C2N43)cc1

IC50 [7]: 1000 nM
Molecule: COc1ccc(S(=O)(=O)N(Cc2ccc(CN3CCOCC3)cc2)C2CCC2)cc1OC

IC50 [7]: 900 nM
Molecule: COc1ccc(S(=O)(=O)N(Cc2ccc(CN3CCOCC3)cc2)c2ccccc2)cc1OC

inhibition [8]: 27%
Molecule: COc1ccc([C@]2(c3nc(N)[nH]c3-c3ccc(O)cc3)N=C3N=CC=C4c5ccccc5N=C2N43)cc1

Activity [4]: > 50% | IC50 [12]: 43 nM
Molecule: O=[N+]([O-])c1ccc2c(c1)S(=O)(=O)C=C2

IC50 [11]: 9190 nM
Molecule: CC(C)COc1cc(C(=O)Nc2ccc(C(=O)Nc3ccc(C(=O)O)cc3OC(C)C)cc2OCC(C)C)ccc1N

Activity [2]: 10 to 20% | Activity [3]: 10 to 20% | Activity [4]: > 50% | Activity [5]: 10 to 20% | Activity [6]: 10 to 20%
Molecule: COC(=O)/C=C1/OC(c2ccc(O)cc2)=CC1=O

Activity [4]: 25%
Molecule: C=CC(=O)N1CCc2ccccc21

Kd [17]: 124 nM
Molecule: CC(C)C[C@@H]1NC(=O)[C@H](CS)NC(=O)[C@H](Cc2ccc(O)cc2)NC(=O)[C@H](C(C)C)NC(=O)[C@H](Cc2ccccc2)NC(=O)[C@H](CC(C)C)NC1=O

IC50 [15]: 89000 nM
Molecule: H-QLTSYDCEVNAPIQGSRNLLQGEELLRALDQVN-OH

Activity [2]: 10 to 20% | Activity [3]: 10 to 20% | Activity [4]: > 50% | Activity [5]: 10 to 20% | Activity [6]: 10 to 20%
Molecule: CC1=CC(O)(C#Cc2ccccc2)C=CC1=O (centres undefined)

Second part, the molecule before the results:

Molecule: C=C1C(=O)OC2C1CCC(=C)C1CC(=O)C(=C)C12 (centres undefined)
Activity [2]: 10 to 20% | Activity [3]: 10 to 20% | Activity [4]: > 50% | Activity [5]: 10 to 20% | Activity [6]: 10 to 20%

Molecule: CCCC[C@@H](C(=O)N1CCN([C@@H](CCC(N)=O)C(N)=O)C(=O)[C@@H]1C)N1CCN[C@@H](CC(C)C)C1=O
Kd [9]: 30000 nM

Molecule: COc1ccc(S(=O)(=O)N(Cc2ccc3c(c2)C=CC(C)(C)O3)c2ccccc2)cc1OC
IC50 [7]: 590 nM

Molecule: H-QLTSYDCEVNA-OH
Kd [10]: 6740 nM

Molecule: CC(C)COc1cc(C(=O)O)ccc1NC(=O)c1ccc(NC(=O)c2ccc(N)c(OC(C)C)c2)c(OCC(C)C)c1
IC50 [11]: 24000 nM

Molecule: CC(C)C[C@@H]1NCCN([C@@H](CC(C)C)C(=O)N2CCN([C@@H](CCC(N)=O)C(N)=O)C(=O)[C@@H]2C)C1=O
Activity (MDA-MB-231): 50%

Molecule: CN1C(=O)[C@@]23C[C@]4([C@]56C[C@@]78SS[C@@](CO)(C(=O)N7[C@H]5Nc5ccccc56)N(C)C8=O)c5ccccc5N[C@@H]4N2C(=O)[C@]1(CO)SS3 [CHAETOCIN]
IC50 [7]: 12500 nM

Molecule: CN1C(=O)[C@@]2(Cc3ccc(CCc4ccc(C[C@@]56SS[C@@](CO)(C(=O)N5C)N(C)C6=O)cc4)cc3)NC(=O)[C@]1(CO)SS2
Kd [13]: 3620 nM | IC50 [14]: 600 to 700 nM

Molecule: CC[C@H](C)[C@H](NC(=O)[C@@H]1CCCN1C(=O)[C@H](C)NC(=O)[C@H](CC(N)=O)NC(=O)[C@@H](NC(=O)[C@H](CCC(=O)O)NC(=O)[C@H](CO)NC(=O)[C@H](CC(=O)O)NC(=O)[C@H](Cc1ccc(O)cc1)NC(=O)[C@H](CO)NC(=O)[C@@H](NC(=O)[C@H](CC(C)C)NC(=O)[C@@H](N)CCC(N)=O)[C@@H](C)O)C(C)C)C(=O)N[C@@H](CCC(N)=O)C(=O)NCC(=O)N[C@@H](CO)C(=O)N[C@@H](CCCNC(=N)N)C(=O)N[C@@H](CC(N)=O)C(=O)N[C@@H](CC(C)C)C(=O)N[C@@H](CC(C)C)C(=O)N[C@@H](CCC(N)=O)C(=O)NCC(=O)Nc1ccc(C(=O)Nc2ccc(C(=O)Nc3ccc(C(=O)NCC(N)=O)cc3OC(C)C)cc2OCC(C)C)cc1OCC(C)C (H-QLTSYDSEVNAPIQGSRNLLQG[4Abz(3-OiBu)][4Abz(3-OiBu)][X3]G-NH2)
IC50 [15]: 83000 nM

Molecule: C[n+]1c2cc(N)ccc2cc2ccc(N)cc21 [EUFLAVINE]
IC50 [16]: 1000 nM

Molecule: COc1ccc(S(=O)(=O)N(Cc2ccc3c(n2)C=CC(C)(C)O3)C2CCC2)cc1OC
IC50 [7]: 280 nM

Molecule: CN1C(=O)[C@@]2(Cc3ccc(C[C@]45SS[C@](CO)(C(=O)N4C)N(C)C5=O)cc3)SS[C@]1(CO)C(=O)N2C
Kd [13]: 750 nM | IC50 [14]: 1500 nM

Molecule: CN1C(=O)[C@]2(Cc3cn([C@]45C[C@@]67SS[C@@](CO)(C(=O)N6[C@H]4Nc4ccccc45)N(C)C7=O)c4ccccc34)SS[C@@]1(CO)C(=O)N2C [CHETOMIN]
IC50 [18]: 540 nM
